{
  "source": "patent US7999101B2",
  "about": "“Cationic lipids for the transfection of nucleic acids” (Politecnico Di Milano, priority 2005, dated 2011)",
  "assay_type_in_all_cases": "cell-based",
  "key": {"[1]": {"test_system": "transformed human kidney cells (Line 293)", "assay": "Transfection of transformed human kidney cells (Line 293) with 16/pEGFP-N1 complexes; GFP expression and survival", "settings": "16/pEGFP-N1 (5 μg)"}, "[2]": {"test_system": "normal human thyrocytes (Line 636)", "assay": "Transfection of normal human thyrocytes (Line 636) with 16/pEGFP-N1 complexes; GFP expression and survival", "settings": "16/pEGFP-N1 (5 μg)"}, "[3]": {"test_system": "cell line PC3 (human androgen-independent prostate carcinoma)", "assay": "Transfection of PC3 cells with plasmid pEGFP-N1; GFP expression by cytofluorimetry 48 h later, and survival", "settings": "for capable of giving a significant percentage of living cells expressing the GFP protein (in words) / toxicity / cell mortality with respect to 16, 22 and 17 (in words): 5 μg pEGFP-N1", "method": "The plasmid vector PEGFP-N1 (BD Biosciences), containing the gene encoding green fluorescent protein (GFP) has been used in the transfection tests. Due to its properties, GFP is a useful tool for monitoring “passive” gene expression: indeed, fluorescent detection in this particular system is performed by means of cytofluorimetry or by microscopy.\nTransfection tests have been performed on the cell line PC3 (human androgen-independent prostate carcinoma) with the plasmid PEGFP-N1 used in quantities equal to 2.5 and 5 μg. The general experimental outline envisaged 4 hours of transfection in reduced-serum culture medium, and in the absence of antibiotics. Upon completion of transfection, the culture medium has been replaced with normal growth medium and the evaluation of GFP expression has been performed 48 hours later by means of cytofluorimetry."}, "[4]": {"settings": "CR = 6, percentage with respect to control, preliminary data"}, "[5]": {"settings": "2.5 μg pEGFP-N1, 16 and 17 at CR = 6.0, commercial agents per manufacturer, at least 3 independent experiments (Table 3)"}, "[6]": {"settings": "2.5 μg pEGFP-N1, 16 and 17 at CR = 6.0, commercial agents per manufacturer, mean percentage with respect to control, at least 3 independent experiments (Table 3)"}, "[7]": {"settings": "2.5 μg pEGFP-N1, charge ratio CR = 1.5"}, "[8]": {"settings": "2.5 μg pEGFP-N1, charge ratio CR = 3.0"}, "[9]": {"settings": "2.5 μg pEGFP-N1, charge ratio CR = 6.0 (Table 1)"}, "[10]": {"settings": "5 μg pEGFP-N1, 16 and 17 at CR = 6.0, commercial agents per manufacturer, at least 3 independent experiments (Table 3)"}, "[11]": {"settings": "5 μg pEGFP-N1, 16 and 17 at CR = 6.0, commercial agents per manufacturer, mean percentage with respect to control, at least 3 independent experiments (Table 3)"}, "[12]": {"settings": "5 μg pEGFP-N1, charge ratio CR = 1.5"}, "[13]": {"settings": "5 μg pEGFP-N1, charge ratio CR = 3.0"}, "[14]": {"settings": "5 μg pEGFP-N1, charge ratio CR = 6.0 (Table 1)"}, "[15]": {"settings": "5 μg pEGFP-N1, constant charge ratio CR = 6 (Table 2)"}, "[16]": {"settings": "5 μg pEGFP-N1, constant charge ratio CR = 6, percentage with respect to control (Table 2)"}},
  "data": [
    {"smiles": "CCCCCCCCCCCCCCNc1nc(NCCS)nc(NCCCN)n1", "note": "[Compound 16]", "values": [
      {"measurement": "Survival", "setting": "[1]; [4]", "value": 86.8, "unit": "%"},
      {"measurement": "GFP+ living cells", "setting": "[1]; CR = 6, preliminary data", "value": 58.3, "unit": "%"},
      {"measurement": "Total GFP+ cells", "setting": "[1]; CR = 6, preliminary data", "value": 76.2, "unit": "%"},
      {"measurement": "Survival", "setting": "[2]; [4]", "value": 75.3, "unit": "%"},
      {"measurement": "GFP+ living cells", "setting": "[2]; CR = 6, preliminary data", "value": 34.3, "unit": "%"},
      {"measurement": "Total GFP+ cells", "setting": "[2]; CR = 6, preliminary data", "value": 53.8, "unit": "%"},
      {"measurement": "GFP+ living cells", "setting": "[3]; [5]", "value": 20.5, "unit": "%"},
      {"measurement": "Total GFP+ cells", "setting": "[3]; [5]", "value": 25.4, "unit": "%"},
      {"measurement": "Survival", "setting": "[3]; [6]", "value": 81.0, "unit": "%"},
      {"measurement": "GFP+ living cells", "setting": "[3]; [7]", "value": 1.18, "unit": "%"},
      {"measurement": "Total GFP+ cells", "setting": "[3]; [7]", "value": 4.75, "unit": "%"},
      {"measurement": "Survival", "setting": "[3]; 2.5 μg pEGFP-N1, charge ratio CR = 1.5, percentage with respect to control", "value": 71.4, "unit": "%"},
      {"measurement": "GFP+ living cells", "setting": "[3]; [8]", "value": 4.05, "unit": "%"},
      {"measurement": "Total GFP+ cells", "setting": "[3]; [8]", "value": 7.81, "unit": "%"},
      {"measurement": "Survival", "setting": "[3]; 2.5 μg pEGFP-N1, charge ratio CR = 3.0, percentage with respect to control", "value": 79.8, "unit": "%"},
      {"measurement": "GFP+ living cells", "setting": "[3]; [9]", "value": 32.40, "unit": "%"},
      {"measurement": "Total GFP+ cells", "setting": "[3]; [9]", "value": 46.13, "unit": "%"},
      {"measurement": "Survival", "setting": "[3]; 2.5 μg pEGFP-N1, charge ratio CR = 6.0, percentage with respect to control (Table 1)", "value": 86.3, "unit": "%"},
      {"measurement": "GFP+ living cells", "setting": "[3]; [10]", "value": 41.14, "unit": "%"},
      {"measurement": "Total GFP+ cells", "setting": "[3]; [10]", "value": 57, "unit": "%"},
      {"measurement": "Survival", "setting": "[3]; [11]", "value": 58.0, "unit": "%"},
      {"measurement": "GFP+ living cells", "setting": "[3]; [12]", "value": 1.54, "unit": "%"},
      {"measurement": "Total GFP+ cells", "setting": "[3]; [12]", "value": 1.85, "unit": "%"},
      {"measurement": "Survival", "setting": "[3]; 5 μg pEGFP-N1, charge ratio CR = 1.5, percentage with respect to control", "value": 100, "unit": "%"},
      {"measurement": "GFP+ living cells", "setting": "[3]; [13]", "value": 10.6, "unit": "%"},
      {"measurement": "Total GFP+ cells", "setting": "[3]; [13]", "value": 12.45, "unit": "%"},
      {"measurement": "Survival", "setting": "[3]; 5 μg pEGFP-N1, charge ratio CR = 3.0, percentage with respect to control", "value": 96.0, "unit": "%"},
      {"measurement": "GFP+ living cells", "setting": "[3]; [14]", "value": 64.6, "unit": "%"},
      {"measurement": "Total GFP+ cells", "setting": "[3]; [14]", "value": 70.70, "unit": "%"},
      {"measurement": "Survival", "setting": "[3]; 5 μg pEGFP-N1, charge ratio CR = 6.0, percentage with respect to control (Table 1)", "value": 64.4, "unit": "%"},
      {"measurement": "cellular toxicity (in words)", "setting": "[3]; 2.5 and 5 μg pEGFP-N1", "value": "absence of any significant cellular toxicity"},
      {"measurement": "capacity to induce the transfection of PC3 cells (in words)", "setting": "[3]; 2.5 and 5 μg pEGFP-N1, GFP expression 48 hours following transfection", "value": "significant percentage of GFP-positive cells"},
      {"measurement": "transfection efficiency compared with Lipofectamine 2000 (in words)", "setting": "[3]; equal amounts of plasmid DNA", "value": "comparable to that of Lipofectamine 2000 only in the presence of higher quantities of plasmid DNA"}
    ]},
    {"smiles": "CCCCCCCCCCCCCCNc1nc(NCCS)nc(N2CCNCC2)n1", "note": "[Compound 18, 2-[4-(2-N-piperazinyl)-6-tetradecylamino-[1,3,5]triazin-2-ylamino]-ethanethiol]", "values": [
      {"measurement": "capable of giving a significant percentage of living cells expressing the GFP protein (in words)", "setting": "[3]", "value": "none"},
      {"measurement": "toxicity / cell mortality with respect to 16, 22 and 17 (in words)", "setting": "[3]", "value": "significantly greater cell mortality"},
      {"measurement": "GFP+ living cells", "setting": "[3]; [15]", "value": 8.4, "unit": "%"},
      {"measurement": "Total GFP+ cells", "setting": "[3]; [15]", "value": 56.2, "unit": "%"},
      {"measurement": "Survival", "setting": "[3]; [16]", "value": 6.3, "unit": "%"}
    ]},
    {"smiles": "NCCCNc1nc(NCCS)nc(NCc2ccccc2)n1", "note": "[Compound 20]", "values": [
      {"measurement": "capable of giving a significant percentage of living cells expressing the GFP protein (in words)", "setting": "[3]", "value": "none"},
      {"measurement": "toxicity / cell mortality with respect to 16, 22 and 17 (in words)", "setting": "[3]", "value": "did not show excessive levels of toxicity"},
      {"measurement": "GFP+ living cells", "setting": "[3]; [15]", "value": 0.01, "unit": "%"},
      {"measurement": "Total GFP+ cells", "setting": "[3]; [15]", "value": 0.9, "unit": "%"},
      {"measurement": "Survival", "setting": "[3]; [16]", "value": 74.0, "unit": "%"}
    ]},
    {"smiles": "CCCCCCNc1nc(NCCS)nc(NCCCN)n1", "note": "[Compound 21]", "values": [
      {"measurement": "capable of giving a significant percentage of living cells expressing the GFP protein (in words)", "setting": "[3]", "value": "none"},
      {"measurement": "toxicity / cell mortality with respect to 16, 22 and 17 (in words)", "setting": "[3]", "value": "significantly greater cell mortality"},
      {"measurement": "GFP+ living cells", "setting": "[3]; [15]", "value": 0.3, "unit": "%"},
      {"measurement": "Total GFP+ cells", "setting": "[3]; [15]", "value": 2.1, "unit": "%"},
      {"measurement": "Survival", "setting": "[3]; [16]", "value": 12.8, "unit": "%"}
    ]},
    {"smiles": "CCCCCCCC/C=C\\CCCCCCCC(=O)OCC(C[N+](C)(C)C)OC(=O)CCCCCCC/C=C\\CCCCCCCC.[Cl-]", "note": "(centres unmarked) [DOTAP, reference compound]", "values": [
      {"measurement": "GFP+ living cells", "setting": "[3]; [5]", "value": 12.0, "unit": "%"},
      {"measurement": "Total GFP+ cells", "setting": "[3]; [5]", "value": 15.8, "unit": "%"},
      {"measurement": "Survival", "setting": "[3]; [6]", "value": 78.6, "unit": "%"},
      {"measurement": "GFP+ living cells", "setting": "[3]; [10]", "value": 21.3, "unit": "%"},
      {"measurement": "Total GFP+ cells", "setting": "[3]; [10]", "value": 23.5, "unit": "%"},
      {"measurement": "Survival", "setting": "[3]; [11]", "value": 65.8, "unit": "%"},
      {"measurement": "percentage of transfection with respect to compounds 16 and 17 (in words)", "setting": "[3]; both quantities of plasmid DNA", "value": "lower percentage of transfection"},
      {"measurement": "toxicity with respect to compounds 16 and 17 (in words)", "setting": "[3]; both quantities of plasmid DNA", "value": "less toxic"}
    ]}
  ]
}
